Data: patent US6716880B2, “Compounds for the treatment of estrogen-dependent illnesses and methods for making and using the same” (Duquesne University of the Holy Ghost, priority 1998, dated 2004)

How the values were obtained:
estrone sulfatase = biological target: T1, estrone sulfatase (Rattus norvegicus, UniProt P15589); test: Rat liver microsome sulfatase assay (Lineweaver-Burk); assay type: biochemical; settings: rat liver microsomes
T1 construct: using rat liver microcosm as a source of sulfatase; from tissue; host or cells: rat liver microsomal fraction (juvenile female Sprague-Dawley rats)
T1 sequence (P15589 20-577): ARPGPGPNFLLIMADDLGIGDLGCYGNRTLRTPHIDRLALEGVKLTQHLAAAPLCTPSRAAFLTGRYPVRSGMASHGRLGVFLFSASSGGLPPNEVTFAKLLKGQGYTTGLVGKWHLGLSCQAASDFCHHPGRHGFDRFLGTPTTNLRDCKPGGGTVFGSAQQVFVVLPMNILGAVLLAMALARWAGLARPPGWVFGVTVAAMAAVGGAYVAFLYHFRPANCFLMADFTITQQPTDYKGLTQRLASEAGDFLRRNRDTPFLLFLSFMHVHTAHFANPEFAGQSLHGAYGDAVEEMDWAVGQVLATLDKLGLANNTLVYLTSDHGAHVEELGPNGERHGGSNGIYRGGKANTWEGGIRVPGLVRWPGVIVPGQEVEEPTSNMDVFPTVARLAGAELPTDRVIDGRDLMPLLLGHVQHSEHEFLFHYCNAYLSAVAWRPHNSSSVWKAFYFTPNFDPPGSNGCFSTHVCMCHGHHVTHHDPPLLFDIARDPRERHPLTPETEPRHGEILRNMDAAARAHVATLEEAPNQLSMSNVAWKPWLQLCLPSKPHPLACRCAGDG
Method: Livers, obtained from juvenile female Sprague-Dawley rats, were minced with scissors in ice-cold 0.25M Tris-sucrose buffer (1:2 w:v) and homogenized with a Tissue Tearor using three 30 sec bursts. The nuclear fraction was pelleted by centrifugation at 1500×g for 15 min at 4° C. The supernatant was decanted and centrifuged at 10,000×g for 30 min at 4° C. to pellet the mitochondrial fraction. The resulting supernatant was removed and centrifuged at 100,000×g to yield the microsomal fraction. The microsomal pellet was resuspended in 50 mM Tris-HCl buffer (1:5 w:v) and protein from the microsomal suspension was determined by using the BCA assay.
^3H-estrone sulfate (53 Ci/mmol) was diluted in 50 mM Tris-HCl buffer and 50 μl (140,000 dpm) of the solution were added to all assay tubes. Radioinert estrone sulfate was dissolved in ethanol and then diluted into 50 mM Tris-HCl buffer. To achieve final concentrations of estrone sulfate, 100 μl of desired concentrations were added to the assay tubes. Compounds prepared according to Example 1 were dissolved in ethanol and then diluted in 50 mM Tris-HCl buffer. […] Product formation for samples containing an inhibitor was compared to that of the control samples, and data for Km and Ki were assessed through Michaelis Menten and Lineweaver-Burk calculations.

[1] = biological target: T2, estrone sulfatase in MDA-MB-231 breast cancer cells (Homo sapiens, UniProt P08842); test: Intact breast cancer cell estrone sulfatase assay; assay type: cell-based; settings: intact MDA-MB-231 cells, 18 h incubation
T2 construct: using intact monolayers of MDA-MB-231 breast cancer cells; endogenous in cells; host or cells: MDA-MB-231 breast cancer cells
T2 sequence (P08842 22-583): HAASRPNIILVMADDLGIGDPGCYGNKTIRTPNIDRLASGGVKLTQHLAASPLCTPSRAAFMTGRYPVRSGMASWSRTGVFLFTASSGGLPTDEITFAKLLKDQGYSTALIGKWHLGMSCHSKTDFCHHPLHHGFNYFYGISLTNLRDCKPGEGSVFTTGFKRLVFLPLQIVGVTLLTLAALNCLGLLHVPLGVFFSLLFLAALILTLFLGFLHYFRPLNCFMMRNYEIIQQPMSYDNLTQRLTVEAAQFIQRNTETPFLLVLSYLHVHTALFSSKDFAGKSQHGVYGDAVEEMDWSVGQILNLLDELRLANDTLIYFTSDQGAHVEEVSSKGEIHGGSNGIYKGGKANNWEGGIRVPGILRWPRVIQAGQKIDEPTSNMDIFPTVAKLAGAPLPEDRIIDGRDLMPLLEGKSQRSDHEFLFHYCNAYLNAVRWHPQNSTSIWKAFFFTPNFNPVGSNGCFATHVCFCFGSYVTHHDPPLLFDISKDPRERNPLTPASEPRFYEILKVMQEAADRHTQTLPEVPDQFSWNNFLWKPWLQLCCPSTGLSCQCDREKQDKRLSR
Method: The ability of the compound prepared according to Example 1 to block hydrolysis of estrone sulfate was examined using intact monolayers of MDA-MB-231 breast cancer cells.
MDA-MB-231 cells were plated into 6-well dishes at approximately 1×10^6 cells/well in growth medium and incubated at 37° C. overnight to facilitate adherence to the plates. The growth medium contained 0.2% (v/v) sodium bicarbonate, 5% heat-inactivated fetal-calf serum, […] gentamicin, and 1% (v/v) antibiotic/antimycotic. Following incubation, growth medium was removed and replaced with growth medium containing ^3H-estrone sulfate (100,000 dpm/ml), with or without the compound of Example 1 (10 μM). Cells were incubated for 18 h, then plates were cooled for 15 min. Medium from each well (500 μL) was aliquoted into 16×100 mm tubes. Three mls of toluene were added to each tube for extraction of unconjugated steroids. The tubes were vortexed for 1 min and then centrifuged at 2500×g for 5 min to separate the aqueous and organic phases. One mL of the organic phase (containing radiolabeled unconjugated steroids) was transferred to scintillation vials and 5 ml scintillation cocktail was added. Total radioactivity was counted using a Packard Tri-carb scintillation counter at 50% efficiency for ^3H. All extractions were performed in duplicate and all treatments were run in triplicate. […]

## CC/C(=C(/c1ccc(OCCN(C)C)cc1)c1ccc(OS(N)(=O)=O)cc1)c1ccccc1 [tamoxifen sulfamate, (Z)-4-Hydroxytamoxifen Sulfamate]
Estrone sulfatase; double reciprocal plot, fixed inhibitor concentration 10 μM
  Ki: ~17 µM
Estrone sulfatase; maximum velocity unchanged, Km increased
  type of inhibition: competitive inhibitor
[1]
  inhibition at 10 µM: ~50%
